Usually inhibition stands for the change of the read-out against control, counted positive when it falls.

This experiment has as its target T1, MATK (HYL) (Homo sapiens, UniProt P42679).
T1 construct: purchased Thermo Fisher Scientific (Life Technologies) SelectScreen
In words: SelectScreen Z'LYTE. The experiment is classed as biochemical. In outline: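 Percent values come from Thermo SelectScreen profiling of NU5455, combining activity and binding assays. CSF1R was run in Z'LYTE format at Km app ATP, and CAMK1 in Adapta format with ATP listed at 10.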

Each structure is given as a SMILES string.

T1 sequence (P42679 whole entry): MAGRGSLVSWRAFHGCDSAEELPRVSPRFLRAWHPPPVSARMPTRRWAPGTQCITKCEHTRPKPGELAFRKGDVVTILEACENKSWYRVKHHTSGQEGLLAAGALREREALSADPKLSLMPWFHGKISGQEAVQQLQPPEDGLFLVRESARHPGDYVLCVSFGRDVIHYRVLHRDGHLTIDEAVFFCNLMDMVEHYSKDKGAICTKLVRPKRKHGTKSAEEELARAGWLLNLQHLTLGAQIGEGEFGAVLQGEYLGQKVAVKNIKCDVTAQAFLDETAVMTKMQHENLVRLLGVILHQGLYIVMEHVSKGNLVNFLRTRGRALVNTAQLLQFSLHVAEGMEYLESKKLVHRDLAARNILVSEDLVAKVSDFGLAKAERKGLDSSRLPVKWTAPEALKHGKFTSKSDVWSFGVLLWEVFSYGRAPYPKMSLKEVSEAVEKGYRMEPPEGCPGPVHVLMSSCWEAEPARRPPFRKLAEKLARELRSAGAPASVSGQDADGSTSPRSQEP

For the molecule `CN(C(=O)CN1CCOCC1)c1ccc2sc3c(-c4cccc5c(=O)cc(N6CC7CCC(C6)O7)oc45)cccc3c2c1` [NU5455], the inhibition at 1 µM was -6.3%.

The record behind these values is paper PMC6934184, “Selective DNA-PKcs inhibition extends the therapeutic index of localized radiotherapy and chemotherapy” (The Journal of Clinical Investigation, 2019).
